The results in this text go back to patent publication US20030109418A1, “Methods for identifying compounds for inhibition of neoplastic lesions, and pharmaceutical compositions containing such compounds” (priority 1999, published 2003).

What is called IC50 is the point on the concentration scale where inhibition reaches its midpoint. A higher IC50 goes with lower potency. One may read the GI50 as the concentration at which growth is held to half of that of the control.

Counter-ions that a name gives are not always drawn.

In one data set the test system is SW-480 cell line. Description: Growth inhibition in SW-480. The note with it: Homo sapiens, SW480. Format: cell-based. As for the experimental part: The growth inhibition IC50 value obtained for Compound I was 0.7 μM in the SW-480 cell line. […] This established rodent model of azoxymethane (“AOM”)-induced carcinogenesis was used to assess the effects of Compound I (free base and salt) on colon cancer development in vivo. ACF are precursors to colonic tumors, and ACF inhibition is predictive of chemo-preventive efficacy.

Another data set relates to NCI-H23. Description: Growth inhibition, neutral red assay, NCI-H23. The note with it: free base, five days. The class given is cell-based, human. The procedure:
(§1) Compound I's activity is not confined to activity against colon cancer cell lines or animal models of colon cancer. It has a broad range of anti-neoplastic effects in various neoplastic cell lines. Various types of human cancer cell lines were propagated under sterile conditions in RPMI 1640 medium with 10% fetal bovine serum, 2 mM L-glutamine and sodium bicarbonate. To determine growth inhibitory effects of Compound I, cells were seeded in 96-well plates at a density of 1000 cells per well. Twenty-four hours after plating, the cells were dosed with various concentrations of the free base of Compound I solubilized in DMSO (final concentration 0.1%). The effect of the drug on tumor cell growth was determined using the neutral red cytotoxicity assay following five days of continuous treatment. Neutral red is a dye that is selectively taken up by viable cells by an ATP-dependent transport mechanism.

The next data set relates to NCI-H322M. Briefly: Growth inhibition, neutral red assay, NCI-H322M. Format: cell-based, human. The note with it: free base, five days. As for the experimental part:
as §1

A further data set concerns Molt-4. Description: Growth inhibition, neutral red assay, Molt-4. The class given is cell-based. The note with it: Homo sapiens, HCl salt. As for the experimental part: as §1
For a further data set, the system named is CCRF-CEM. Description: Growth inhibition, neutral red assay, CCRF-CEM. The note with it: Homo sapiens, HCl salt. The class given is cell-based. The procedure: as §1
Another data set has as its system RPMI-8226. Briefly: Growth inhibition, neutral red assay, RPMI-8226. The class given is cell-based. The settings on record: Homo sapiens, HCl salt. The procedure: as §1
For another data set, the system named is OVCAR. Description: Growth inhibition, neutral red assay, OVCAR. Format: cell-based. The settings on record: Homo sapiens; HCl salt. The procedure: as §1
The conditions of data set [1]: dog, in vivo.
The next data set concerns UACC375, Melanoma. Briefly: Growth inhibition, SRB assay, UACC375. The class given is cell-based. The note with it: Homo sapiens, UACC-375. The text has this: A compound's ability to inhibit tumor cell growth can be measured using the HT-29 human colon carcinoma cell line obtained from ATCC. HT-29 cells have previously been characterized as a relevant colon tumor cell culture model (Fogh, J., and Trempe, G. In: Human Tumor Cells in Vitro, J. Fogh (eds.), Plenum Press, New York, pp. 115-159, 1975). HT-29 cells are maintained in RPMI media supplemented with 5% fetal bovine calf serum (Gemini Bioproducts, Inc., Carlsbad, Calif.) and 2 mm glutamine, and 1% antibiotic-antimycotic in a humidified atmosphere of 95% air and 5% CO2 at 37° C. Briefly, HT-29 cells are plated at a density of 500 cells/well in 96 well microtiter plates and incubated for 24 hours at 37° C. prior to the addition of compound. […] After six days in culture, the cells are fixed by the addition of cold trichloroacetic acid to a final concentration of 10% and protein levels are measured using the sulforhodamine B (SRB) colorimetric protein stain assay as previously described by Skehan, P., Storeng, R., Scudiero, D., Monks, A., McMahon, J., Vistica, D., Warren, J. T., Bokesch, H., Kenney, S., and Boyd, M. R., “New Colorimetric Assay For Anticancer-Drug Screening,” J. Natl. Cancer Inst. […]
To show the effectiveness of this screening method on various forms of neoplasia, compounds were tested on numerous cell lines. […] The IC50 values were determined by the SRB assay. […]
(The SRB assay estimates cell density from bound dye.)

Data set [2] has as its system β-catenin and PKG levels in SW480 cells. Briefly: Western blot of β-catenin and PKG in SW480. The class given is cell-based, human. As for the experimental part: SW480 cells treated with exisulind as described previously are harvested from the microfuge tubes by rinsing once with ice-cold PBS. The cells are lysed by modified RIPA buffer for 15 minutes with agitation. The cell lysate is spun down in a cold room. The supernatants are transferred to fresh microcentrifuge tubes immediately after spinning. BioRad DC Protein Assay (Temecula, Calif.) is performed to determine the protein concentrations in samples. The samples are normalized for protein concentration, as described above.
50 μg of each sample is loaded to 10% SDS gel. SDS-PAGE is performed, and the proteins then are transferred to a nitrocellulose membrane. The blotted nitrocellulose membrane are blocked in freshly prepared TBST containing 5% nonfat dry milk for one hour at room temperature with constant agitation.
A goat-anti-PKG primary antibody is diluted to the recommended concentration/dilution in fresh TBST/5% nonfat dry milk. The nitrocellulose membrane is placed in the primary antibody solution and incubated one hour at room temperature with agitation. The nitrocellulose membrane is washed three times for ten minutes each with TBST. […]
This observation was made by culturing SW480 cells with either 200, 400 or 600 μM exisulind or vehicle (0.1% DMSO). […] Immuno-reactive protein can be detected by Western blot. […]

In the data set with SW-480 cell line, `CC1=C(CC(=O)NCc2ccccc2)c2cc(F)ccc2/C1=C\c1ccncc1` [Compound I, (Z)-5-fluoro-2-methyl-(4-pyridylidene)-3-(N-benzyl)indenylacetamide hydrochloride] showed an IC50 of 700 nM. Besides, the GI50 is 1.7 µM with NCI-H23 (Homo sapiens, NCI-H23, 120 h); 2.1 µM with NCI-H322M (Homo sapiens, NCI-H322M, 120 h); 1.6 µM with Molt-4; 1.4 µM with CCRF-CEM; 1.2 µM in the data set with RPMI-8226; 1.2 µM in the data set with OVCAR. Moreover, the “GI90 μM, NCI-H23” value in the data set on NCI-H23 turned out to be 2.5 µM. Besides, the “GI90 μM, NCI-H322M” value in the data set with NCI-H322M was found to be 13.2 µM. Besides, the “signs of toxicity, single dose in capsules” value in data set [1] (1000 mg/kg) was “no signs of toxicity”. The “drug-related effects, single and seven consecutive doses” value in data set [1] (1000 mg/kg/day) is reported as “At no time in either dosing phase were any obvious signs of drug-related effects observed”.

In the case of `CC1=C(CC(=O)O)c2cc(F)ccc2/C1=C\c1ccc(S(C)(=O)=O)cc1` [Exisulind, 5-fluoro-2-methyl-1-(p-methylsulfonylbenzylidene)-3-indenylacetic acid], in the data set on UACC375, Melanoma, it took 100 µM to reach half-maximal inhibition (IC50). Moreover, in data set [2] (SW480, 200, 400 or 600 μM, 48 hours, Western blot), the “reduction of expression of β-catenin compared to control” value is 50%. In addition, in data set [2] (SW480, 48 hours), the “PKG level by Western blot” value was “increase of PKG”.
